Source: ChEMBL document CHEMBL5291721, “A preclinical secondary pharmacology resource illuminates target-adverse drug reaction associations of marketed drugs” (Nat Commun, 2023)

What was measured:
[1] = biological target: T1, 5-hydroxytryptamine receptor 2C (Homo sapiens, UniProt P28335)
T1 sequence (P28335 whole entry): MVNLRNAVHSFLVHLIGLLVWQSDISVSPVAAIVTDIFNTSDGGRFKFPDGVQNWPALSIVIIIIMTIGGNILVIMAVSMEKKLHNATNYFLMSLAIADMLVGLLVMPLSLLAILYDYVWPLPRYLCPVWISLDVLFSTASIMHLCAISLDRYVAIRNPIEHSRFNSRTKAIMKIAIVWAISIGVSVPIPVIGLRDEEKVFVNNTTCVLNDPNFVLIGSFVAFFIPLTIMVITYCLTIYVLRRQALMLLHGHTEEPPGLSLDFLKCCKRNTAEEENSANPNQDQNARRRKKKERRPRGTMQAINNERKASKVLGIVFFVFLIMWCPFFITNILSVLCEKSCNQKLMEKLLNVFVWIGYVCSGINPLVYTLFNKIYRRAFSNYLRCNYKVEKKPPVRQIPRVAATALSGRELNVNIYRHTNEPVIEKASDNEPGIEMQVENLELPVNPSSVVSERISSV

[2] = biological target: 3',5'-cyclic-AMP phosphodiesterase 4D (Homo sapiens, UniProt Q08499); assay type: functional
Sequence of 3',5'-cyclic-AMP phosphodiesterase 4D (Q08499 whole entry): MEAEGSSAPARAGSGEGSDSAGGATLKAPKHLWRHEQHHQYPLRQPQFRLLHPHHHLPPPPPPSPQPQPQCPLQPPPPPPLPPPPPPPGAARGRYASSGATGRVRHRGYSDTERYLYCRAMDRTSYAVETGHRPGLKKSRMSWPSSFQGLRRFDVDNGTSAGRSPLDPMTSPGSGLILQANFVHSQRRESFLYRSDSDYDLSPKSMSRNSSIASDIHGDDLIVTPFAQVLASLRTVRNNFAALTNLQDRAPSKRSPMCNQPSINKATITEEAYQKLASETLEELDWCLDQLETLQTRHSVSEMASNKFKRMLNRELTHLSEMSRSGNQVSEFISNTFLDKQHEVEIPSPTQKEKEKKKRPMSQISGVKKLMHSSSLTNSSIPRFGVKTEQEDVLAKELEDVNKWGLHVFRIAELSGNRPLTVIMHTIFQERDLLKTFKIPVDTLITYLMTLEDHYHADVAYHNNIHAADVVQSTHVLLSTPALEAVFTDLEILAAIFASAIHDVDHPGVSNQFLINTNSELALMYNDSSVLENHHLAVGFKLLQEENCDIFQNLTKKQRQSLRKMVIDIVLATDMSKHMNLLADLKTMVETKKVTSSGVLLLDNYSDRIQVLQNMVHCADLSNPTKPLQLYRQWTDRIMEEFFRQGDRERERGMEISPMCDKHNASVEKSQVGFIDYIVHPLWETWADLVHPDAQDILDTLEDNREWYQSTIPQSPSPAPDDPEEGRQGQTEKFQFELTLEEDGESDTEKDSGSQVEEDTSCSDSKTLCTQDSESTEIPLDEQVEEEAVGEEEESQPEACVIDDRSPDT

[3] = biological target: Beta-1 adrenergic receptor (Homo sapiens, UniProt P08588); assay type: functional
Sequence of Beta-1 adrenergic receptor (P08588 whole entry): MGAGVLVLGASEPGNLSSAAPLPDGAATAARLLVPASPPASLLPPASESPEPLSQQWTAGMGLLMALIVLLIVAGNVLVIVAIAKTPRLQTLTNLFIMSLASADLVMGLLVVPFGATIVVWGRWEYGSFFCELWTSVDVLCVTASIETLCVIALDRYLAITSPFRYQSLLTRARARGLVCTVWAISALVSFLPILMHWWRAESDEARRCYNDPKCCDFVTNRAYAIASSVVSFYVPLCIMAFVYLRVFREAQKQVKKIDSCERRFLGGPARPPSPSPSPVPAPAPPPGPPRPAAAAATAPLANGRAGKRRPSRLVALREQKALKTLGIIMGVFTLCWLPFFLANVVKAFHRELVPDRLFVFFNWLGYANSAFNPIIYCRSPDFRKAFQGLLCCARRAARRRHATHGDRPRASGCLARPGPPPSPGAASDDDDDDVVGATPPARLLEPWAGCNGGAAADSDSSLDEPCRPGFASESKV

[4] = biological target: Vasopressin V2 receptor (Homo sapiens, UniProt P30518)
Sequence of Vasopressin V2 receptor (P30518 whole entry): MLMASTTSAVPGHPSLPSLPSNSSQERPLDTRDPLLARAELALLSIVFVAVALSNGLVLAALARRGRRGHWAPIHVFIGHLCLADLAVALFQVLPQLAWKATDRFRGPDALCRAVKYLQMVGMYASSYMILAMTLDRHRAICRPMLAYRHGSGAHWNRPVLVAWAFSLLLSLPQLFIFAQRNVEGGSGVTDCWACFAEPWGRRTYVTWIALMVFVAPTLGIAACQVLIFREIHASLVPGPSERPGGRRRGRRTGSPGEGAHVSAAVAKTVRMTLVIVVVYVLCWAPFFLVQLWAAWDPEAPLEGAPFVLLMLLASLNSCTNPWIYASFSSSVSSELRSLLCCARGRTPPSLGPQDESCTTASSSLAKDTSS

[5] = biological target: T2, 5-hydroxytryptamine receptor 3A (Homo sapiens, UniProt P46098); assay type: functional
T2 sequence (P46098 whole entry): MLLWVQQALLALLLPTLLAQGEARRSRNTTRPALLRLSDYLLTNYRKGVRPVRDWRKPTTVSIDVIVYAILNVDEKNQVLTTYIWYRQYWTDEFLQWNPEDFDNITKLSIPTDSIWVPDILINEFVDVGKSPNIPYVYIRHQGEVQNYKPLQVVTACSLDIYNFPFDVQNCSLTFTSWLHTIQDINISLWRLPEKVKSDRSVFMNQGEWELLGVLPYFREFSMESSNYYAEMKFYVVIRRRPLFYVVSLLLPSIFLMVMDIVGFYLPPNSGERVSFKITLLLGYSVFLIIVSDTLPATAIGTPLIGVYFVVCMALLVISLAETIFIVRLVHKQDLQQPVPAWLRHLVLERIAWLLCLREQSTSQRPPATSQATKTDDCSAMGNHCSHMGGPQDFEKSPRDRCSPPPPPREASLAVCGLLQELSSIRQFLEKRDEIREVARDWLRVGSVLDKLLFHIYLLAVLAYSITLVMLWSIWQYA

[6] = biological target: T3, Adenosine receptor A1 (Homo sapiens, UniProt P30542)
T3 sequence (P30542 whole entry): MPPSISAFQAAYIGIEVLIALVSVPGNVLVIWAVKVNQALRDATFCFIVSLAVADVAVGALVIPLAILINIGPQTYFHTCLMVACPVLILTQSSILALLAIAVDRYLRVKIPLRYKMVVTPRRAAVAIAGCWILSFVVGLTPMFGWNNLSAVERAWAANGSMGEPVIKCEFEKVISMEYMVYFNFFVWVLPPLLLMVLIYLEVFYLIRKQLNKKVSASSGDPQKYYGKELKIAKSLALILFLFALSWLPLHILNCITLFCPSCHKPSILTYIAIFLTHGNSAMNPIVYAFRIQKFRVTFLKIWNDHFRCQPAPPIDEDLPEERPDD

[7] = biological target: Motilin receptor (Homo sapiens, UniProt O43193)
Sequence of Motilin receptor (O43193 whole entry): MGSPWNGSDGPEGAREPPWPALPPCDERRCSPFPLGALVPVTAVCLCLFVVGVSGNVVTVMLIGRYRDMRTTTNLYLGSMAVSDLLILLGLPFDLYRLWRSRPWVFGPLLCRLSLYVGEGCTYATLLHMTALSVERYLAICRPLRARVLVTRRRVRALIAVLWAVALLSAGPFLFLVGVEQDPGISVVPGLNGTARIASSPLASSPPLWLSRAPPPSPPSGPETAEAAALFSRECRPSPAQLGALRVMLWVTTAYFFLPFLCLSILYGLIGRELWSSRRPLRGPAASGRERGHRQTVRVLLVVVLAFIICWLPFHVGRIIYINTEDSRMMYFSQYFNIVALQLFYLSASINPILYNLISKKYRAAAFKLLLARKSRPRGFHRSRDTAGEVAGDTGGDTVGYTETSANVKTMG

[8] = biological target: T4, Alpha-2C adrenergic receptor (Homo sapiens, UniProt P18825); assay type: functional
T4 sequence (P18825 whole entry): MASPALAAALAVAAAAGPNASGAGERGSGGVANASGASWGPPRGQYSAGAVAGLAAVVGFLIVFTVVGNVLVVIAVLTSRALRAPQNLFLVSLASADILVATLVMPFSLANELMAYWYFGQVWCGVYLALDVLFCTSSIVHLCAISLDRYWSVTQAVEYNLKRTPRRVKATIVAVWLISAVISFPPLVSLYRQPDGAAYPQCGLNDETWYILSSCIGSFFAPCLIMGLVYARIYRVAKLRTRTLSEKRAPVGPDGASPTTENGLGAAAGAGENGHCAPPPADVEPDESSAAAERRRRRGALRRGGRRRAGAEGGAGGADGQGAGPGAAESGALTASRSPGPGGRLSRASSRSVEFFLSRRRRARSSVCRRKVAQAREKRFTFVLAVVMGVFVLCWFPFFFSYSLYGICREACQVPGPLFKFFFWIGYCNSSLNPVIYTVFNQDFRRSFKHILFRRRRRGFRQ

[9] = biological target: T5, Androgen receptor (Homo sapiens, UniProt P10275)
T5 sequence (P10275 whole entry): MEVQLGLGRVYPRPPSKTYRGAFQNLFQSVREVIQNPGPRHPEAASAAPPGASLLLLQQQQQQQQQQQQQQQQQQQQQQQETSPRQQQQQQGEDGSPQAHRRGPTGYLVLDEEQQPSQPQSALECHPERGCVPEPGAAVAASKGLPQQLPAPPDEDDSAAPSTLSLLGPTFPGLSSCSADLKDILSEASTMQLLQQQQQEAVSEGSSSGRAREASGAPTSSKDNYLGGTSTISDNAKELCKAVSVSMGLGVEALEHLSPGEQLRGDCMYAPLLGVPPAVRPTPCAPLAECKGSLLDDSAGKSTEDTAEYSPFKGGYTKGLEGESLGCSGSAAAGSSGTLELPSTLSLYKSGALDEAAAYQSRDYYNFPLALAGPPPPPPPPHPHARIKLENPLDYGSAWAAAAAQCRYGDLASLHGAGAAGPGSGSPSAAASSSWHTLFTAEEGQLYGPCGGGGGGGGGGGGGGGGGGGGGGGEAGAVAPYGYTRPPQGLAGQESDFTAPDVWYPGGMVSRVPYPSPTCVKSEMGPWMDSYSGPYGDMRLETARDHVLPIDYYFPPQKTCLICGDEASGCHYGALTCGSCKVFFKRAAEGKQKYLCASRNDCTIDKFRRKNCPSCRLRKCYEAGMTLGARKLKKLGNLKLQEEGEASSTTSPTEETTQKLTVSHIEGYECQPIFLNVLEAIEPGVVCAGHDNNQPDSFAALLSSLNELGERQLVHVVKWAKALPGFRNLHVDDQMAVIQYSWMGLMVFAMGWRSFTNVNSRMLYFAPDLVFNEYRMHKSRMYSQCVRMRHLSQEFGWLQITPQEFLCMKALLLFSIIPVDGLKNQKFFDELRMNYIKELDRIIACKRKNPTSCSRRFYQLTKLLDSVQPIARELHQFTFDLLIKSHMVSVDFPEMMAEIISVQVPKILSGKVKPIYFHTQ
Further: assay procedure not described here.

## C[C@]1(COc2ccc(N3CCC(Oc4ccc(OC(F)(F)F)cc4)CC3)cc2)Cn2cc([N+](=O)[O-])nc2O1
[1]
  AC50: > 30 µM
[2]
  AC50: > 30 µM
[3]
  AC50: > 10 µM
[4]
  AC50: > 30 µM
[5]
  AC50: > 10 µM
[6]
  AC50: > 30 µM
[7]
  AC50: > 10 µM
[8]
  AC50: > 10 µM
[9]
  AC50: > 30 µM
